The EC50 is the midpoint of the concentration-response curve.

This test has as its system Myotonic Dystrophy 1 affected patient fibroblasts (Coriel GM04602; 1600 CTG repeats). Briefly: DM1 foci reduction assay (EC50 assay; CAG10-Cy3 FISH, foci per nucleus). The format is cell-based. Conditions: Homo sapiens, Fibroblast; DM1 patient fibroblasts, 48 h treatment, foci per nucleus; read-out: DM1 EC50, 48 h. On the procedure:
DM1 Foci Reduction Assay Methods
Myotonic Dystrophy 1 affected patient fibroblasts (Coriel GM04602; 1600 CTG repeats) and wild type fibroblasts (Coriell GM07492; control line) were cultured separately in Gibco DMEM (1×)+4.5 g/L D-Glucose+L-Glutamine+[…] Sodium Pyruvate, supplemented with 10% FBS and 1× Pen/Strep. Cells were maintained in an incubator at 37° C. and 5% CO2 with media refreshed every 48-72 hours.
At 90-95% confluency, both cell lines were harvested using Trypl-E then pelleted at 500×g for 5 minutes and were resuspended in fresh media. DM1 fibroblasts were seeded in Agilent 96 well black plates at a density of 5,000 cells/well in 200 μL media; and 8 wells were reserved for control fibroblasts. Plates were returned to incubator for 24 hours at 37° C. and 5% CO2.
Compounds were diluted from 10 mM stock to 1 mM in DMSO and then diluted once more to 6 μM (2× concentration) in media. Media was removed from all plates and cells were replenished with 100 μL media. Cells were treated in 8-point dose response, 1:3 fold dilution, 3 μM top dose via addition of 100 μL of 6 μM (2× concentration) compound to the 100 μL media with cells. Plates were returned to incubator for 48 hours at 37° C. and 5% CO2.
Following treatment, compounds were removed, and plates were washed with PBS, then cells were fixed in 75 μL 4% PFA solution for 20 minutes at room temperature. Plates were washed twice with PBS and twice with cold 70% ethanol before permeabilization with 250 μL cold 70% ethanol for 24-72 hours at −20° C.
After permeabilization, plates were washed once with a 30% formamide and 2×SSC buffer and rehydrated in that buffer for 15 minutes at room temperature. Cells were incubated overnight at 37° C. in 75 μL of a hybridization solution containing 30% formamide, 2×SSC, 25 mg/mL dextran sulfate, 2.5 mg/mL BSA, 0.2 μg/mL Herring sperm DNA, 2 mM vanadyl-ribonucleoside complex, and 5 nM CAG10-Cy3 probe.
Plates were washed once with 30% formamide in 2×SSC buffer, then twice with the buffer for 30 minutes at 37° C., 300 RPM in an incubating plate shaker. Cells were stained with 75 μL of 2.5 μg/mL DAPI in PBS for 5 minutes at room temperature. Plates were then washed twice with PBS and stored in 250 μL PBS. Plates were sealed with adhesive foil and wiped down with 70% ethanol.
Cells were imaged on a Cytation5 with a 20× objective sampling from 4 areas of each well. Nuclei were captured under DAPI channel and foci under RFP channel. Plates were analyzed on an average foci per nucleus per well basis.
As to `CC(=O)NCCCCCCn1cc(NC(=O)c2nc(NC(=O)CCNC(=O)c3cc(NC(=O)c4nccn4C)cn3C)cn2C)cc1C(=O)NCCCC(=O)Nc1cn(C)c(C(=O)NCCC(=O)Nc2cc(C(=O)Nc3cn(C)c(C(=O)NCCC(=O)N4CCC(C#CC#CC5CCNCC5)CC4)n3)n(C)c2)n1` [Compound B-294], the half-maximal effective concentration (EC50) is less than 100 nM.

Turning to `Cn1cc(NC(=O)c2nc(NC(=O)CCNC(=O)c3cc(NC(=O)c4nccn4C)cn3C)cn2C)cc1C(=O)NCCCC(=O)Nc1cn(C)c(C(=O)NCCC(=O)Nc2cc(C(=O)Nc3cn(C)c(C(=O)NCCC(=O)NCCCCCN4CCC(C#CC#CC5CCN(Cc6ccc(C(C)(C)C)cc6)CC5)CC4)n3)n(C)c2)n1` [Compound B-178], the EC50 is greater than 1000 nM.

Regarding `Cn1cc(NC(=O)c2nc(NC(=O)CCNC(=O)c3cc(NC(=O)c4nccn4C)cn3C)cn2C)cc1C(=O)NCCCC(=O)Nc1cn(C)c(C(=O)NCCC(=O)Nc2cc(C(=O)Nc3cn(C)c(C(=O)NCCC(=O)NC4CCNCC4)n3)n(C)c2)n1` [Compound B-140], the 50% effective concentration (EC50) was greater than 1000 nM.

Consider `Cn1cc(NC(=O)c2nc(NC(=O)CCNC(=O)c3cc(NC(=O)c4nccn4C)cn3C)cn2C)cc1C(=O)NCCCC(=O)Nc1cn(C)c(C(=O)NCCC(=O)Nc2cc(C(=O)NCCOCCOCCOCCN3CCC(C#CC#CC4CCN(C(=O)OC(C)(C)C)CC4)CC3)n(C)c2)n1` [Compound B-210], for which the concentration giving a half-maximal response (EC50) is greater than 1000 nM.

`Cn1cc(NC(=O)c2nc(NC(=O)CCNC(=O)c3cc(NC(=O)c4nccn4C)cn3C)cn2C)cc1C(=O)NCCCC(=O)Nc1cn(C)c(C(=O)NCCC(=O)Nc2cc(C(=O)Nc3cn(C)c(C(=O)NCCC(=O)NCC#CC#CC4CCN(C(=O)c5ccc(C(C)(C)C)cc5)CC4)n3)n(C)c2)n1` [Compound B-188]: the EC50 was greater than 1000 nM.

On to `CCN(CC)CCCC[C@H](NC(=O)c1cccc(C(=O)OC(C)(C)C)c1)C(=O)NCCOCCOCCOCCNC(=O)c1nc(NC(=O)c2cc(NC(=O)CCNC(=O)c3nc(NC(=O)CCCNC(=O)c4cc(NC(=O)c5nc(NC(=O)CCNC(=O)c6cc(NC(=O)c7nccn7C)cn6C)cn5C)cn4C)cn3C)cn2C)cn1C` [Compound B-353], for which the EC50 was in the range of 100 to 500 nM.

For the compound `Cn1cc(NC(=O)c2nc(NC(=O)CCNC(=O)c3cc(NC(=O)c4nccn4C)cn3C)cn2C)cc1C(=O)NCCCC(=O)Nc1cn(C)c(C(=O)NCCC(=O)Nc2cc(C(=O)Nc3cn(C)c(C(=O)NCCOCCOCCOc4cncc(C(=O)O)c4)n3)n(C)c2)n1` [Compound B-216], the EC50 is greater than 1000 nM.

Turning to `CN(CCCCCc1cccc(C(=O)O)c1)CCCNC(=O)c1nc(NC(=O)c2cc(NC(=O)CCNC(=O)c3nc(NC(=O)CCCNC(=O)c4cc(NC(=O)c5nc(NC(=O)CCNC(=O)c6cc(NC(=O)c7nccn7C)cn6C)cn5C)cn4C)cn3C)cn2C)cn1C` [Compound B-215], the EC50 was 100 to 500 nM.

As to `CCN(CC)CCCC[C@@H](NC(C)=O)C(=O)NCCNC(=O)CCNC(=O)c1nc(NC(=O)c2cc(NC(=O)CCNC(=O)c3nc(NC(=O)CCCNC(=O)c4cc(NC(=O)c5nc(NC(=O)CCNC(=O)c6cc(NC(=O)c7nccn7C)cn6C)cn5C)cn4C)cn3C)cn2C)cn1C` [Compound B-103], the EC50 was greater than 1000 nM.

As for `CCN(CC)CCCC[C@H](NC(=O)C1CCN(C)CC1)C(=O)NCCOCCOCCOCCOCCOCCNC(=O)CCNC(=O)c1nc(NC(=O)c2cc(NC(=O)CCNC(=O)c3nc(NC(=O)CCCNC(=O)c4cc(NC(=O)c5nc(NC(=O)CCNC(=O)c6cc(NC(=O)c7nccn7C)cn6C)cn5C)cn4C)cn3C)cn2C)cn1C` [Compound B-96], the EC50 was 100 to 500 nM.

For the compound `CC(C)CCC(=O)N1CCC(C#CC#CC2CCN(CCCCCNC(=O)CCNC(=O)c3nc(NC(=O)c4cc(NC(=O)CCNC(=O)c5nc(NC(=O)CCCNC(=O)c6cc(NC(=O)c7nc(NC(=O)CCNC(=O)c8cc(NC(=O)c9nccn9C)cn8C)cn7C)cn6C)cn5C)cn4C)cn3C)CC2)CC1` [Compound B-184], the EC50 is greater than 1000 nM.

For the compound `CCN(CC)CCCC[C@H](NC(=O)c1ccccc1)C(=O)NCCOCCOCCOCCOCCOCCNC(=O)CCNC(=O)c1nc(NC(=O)c2cc(NC(=O)CCNC(=O)c3nc(NC(=O)CCCNC(=O)c4cc(NC(=O)c5nc(NC(=O)CCNC(=O)c6cc(NC(=O)c7nccn7C)cn6C)cn5C)cn4C)cn3C)cn2C)cn1C` [Compound B-91], the EC50 lay within 500 to 1000 nM.

With `Cn1cc(NC(=O)c2nc(NC(=O)CCNC(=O)c3cc(NC(=O)c4nccn4C)cn3C)cn2C)cc1C(=O)NCCCC(=O)Nc1cn(C)c(C(=O)NCCC(=O)Nc2cc(C(=O)Nc3cn(C)c(C(=O)NCCC(=O)NCC#N)n3)n(C)c2)n1` [Compound B-112], the EC50 fell in the range of 500 to 1000 nM.

As to `Cn1cc(NC(=O)c2nc(NC(=O)CCNC(=O)c3cc(NC(=O)c4nccn4C)cn3C)cn2C)cc1C(=O)NCCCC(=O)Nc1cn(C)c(C(=O)NCCC(=O)Nc2cc(C(=O)Nc3cn(C)c(C(=O)NCCC(=O)N4CCC(C#CC5(O)CCNCC5)CC4)n3)n(C)c2)n1` [Compound B-198], the EC50 lay in the range of 500 to 1000 nM.

As for `Cn1cc(NC(=O)c2nc(NC(=O)CCNC(=O)c3cc(NC(=O)c4nccn4C)cn3C)cn2C)cc1C(=O)NCCCC(=O)Nc1cn(C)c(C(=O)NCCC(=O)Nc2cc(C(=O)Nc3cn(C)c(C(=O)NCCC(=O)NCCOCCOCCOc4ccc(NC(=O)OCc5ccccc5)cc4)n3)n(C)c2)n1` [Compound B-13], the EC50 is greater than 1000 nM.

In the case of `Cn1cc(NC(=O)c2nc(NC(=O)CCNC(=O)c3cc(NC(=O)c4nccn4C)cn3C)cn2C)cc1C(=O)NCCCC(=O)Nc1cn(C)c(C(=O)NCCC(=O)Nc2cc(C(=O)Nc3cn(C)c(C(=O)NCCC(=O)NCCOCCOCCOCCOCCOc4ccc(NC(=O)OCc5ccccc5)cc4)n3)n(C)c2)n1` [Compound B-11], the EC50 is greater than 1000 nM.

Consider `Cn1cc(NC(=O)c2nc(NC(=O)CCNC(=O)c3cc(NC(=O)c4nccn4C)cn3C)cn2C)cc1C(=O)NCCCC(=O)Nc1cn(C)c(C(=O)NCCC(=O)Nc2cc(C(=O)Nc3cn(C)c(C(=O)NCCC(=O)N[C@H]4CC[C@H](O)CC4)n3)n(C)c2)n1` [Compound B-54], for which the EC50 is 100 to 500 nM.

As for `CCN(CC)CCCC[C@@H](NC(C)=O)C(=O)Nc1ccc(OCCOCCOCCOCCOCCOCCOCCNC(=O)CCNC(=O)c2nc(NC(=O)c3cc(NC(=O)CCNC(=O)c4nc(NC(=O)CCCNC(=O)c5cc(NC(=O)c6nc(NC(=O)CCNC(=O)c7cc(NC(=O)c8nccn8C)cn7C)cn6C)cn5C)cn4C)cn3C)cn2C)cc1` [Compound B-145], the EC50 was 500 to 1000 nM.

`CCCNC(=O)CCNC(=O)c1nc(NC(=O)c2cc(NC(=O)CCNC(=O)c3nc(NC(=O)CCCNC(=O)c4cc(NC(=O)c5nc(NC(=O)CCNC(=O)c6cc(NC(=O)c7nccn7C)cn6C)cn5C)cn4CCCCCCNC(=O)CCOCCOCCOCCOCCOCCOC)cn3C)cn2C)cn1C` [Compound B-238]: the EC50 was 100 to 500 nM.

On to `Cn1cc(NC(=O)c2nc(NC(=O)CCNC(=O)c3cc(NC(=O)c4nccn4C)cn3C)cn2C)cc1C(=O)NCCCC(=O)Nc1cn(C)c(C(=O)NCCC(=O)Nc2cc(C(=O)Nc3cn(C)c(C(=O)NCCC(=O)N4CCC(O)(C#CC5CCN(C(=O)OC(C)(C)C)CC5)CC4)n3)n(C)c2)n1` [Compound B-195], for which the EC50 is greater than 1000 nM.

Regarding `CC(=O)N1CCN(C2CCN(C(=O)CCNC(=O)c3nc(NC(=O)c4cc(NC(=O)CCNC(=O)c5nc(NC(=O)CCCNC(=O)c6cc(NC(=O)c7nc(NC(=O)CCNC(=O)c8cc(NC(=O)c9nccn9C)cn8C)cn7C)cn6C)cn5C)cn4C)cn3C)CC2)CC1` [Compound B-130], the EC50 was in the range of 100 to 500 nM.

For `Cn1cc(NC(=O)c2nc(NC(=O)CCNC(=O)c3cc(NC(=O)c4nccn4C)cn3C)cn2C)cc1C(=O)NCCCC(=O)Nc1cn(C)c(C(=O)NCCC(=O)Nc2cc(C(=O)Nc3cn(C)c(C(=O)NCCC(=O)N4CCC(C#CC5(O)CCN(C(=O)OCC6c7ccccc7-c7ccccc76)CC5)CC4)n3)n(C)c2)n1` [Compound B-197], the EC50 fell in the range of 500 to 1000 nM.

Consider `Cn1cc(NC(=O)c2nc(NC(=O)CCNC(=O)c3cc(NC(=O)c4nccn4C)cn3C)cn2C)cc1C(=O)NCCCC(=O)Nc1cn(C)c(C(=O)NCCC(=O)Nc2cc(C(=O)Nc3cn(C)c(C(=O)N4CC(c5cnc(CNC(=O)OCc6ccccc6)[nH]5)C4)n3)n(C)c2)n1` [Compound B-201], for which the EC50 was greater than 1000 nM.

On to `CCCNC(=O)CCNC(=O)c1nc(NC(=O)c2cc(NC(=O)CCNC(=O)c3nc(NC(=O)CCCNC(=O)c4cc(NC(=O)c5nc(NC(=O)CCNC(=O)c6cc(NC(=O)c7nccn7C)cn6C)cn5C)cn4C)cn3C)cn2CCCCC(=O)N(CCOCCOCCOCCOC)CCOCCOCCOCCOC)cn1C` [Compound B-159], for which the concentration for a half-maximal effect (EC50) is greater than 1000 nM.

For the compound `Cn1cc(NC(=O)c2nc(NC(=O)CCNC(=O)c3cc(NC(=O)c4nccn4C)cn3C)cn2C)cc1C(=O)NCCCC(=O)Nc1cn(C)c(C(=O)NCCC(=O)Nc2cc(C(=O)Nc3cn(C)c(C(=O)NCCC(=O)N4CCN(C5CCN(c6ccc(N)cc6)CC5)CC4)n3)n(C)c2)n1` [Compound B-156], the EC50 is greater than 1000 nM.

For the origin of these results see patent US20250368628A1, “METHODS AND COMPOUNDS FOR MODULATING INHERITED GENETIC DISEASES” (Design Therapeutics, Inc., priority 2022, published 2025).
